Assays:
[1] = tested on: K422; test: Cell viability, 7 days compound treatment (Cell Titer-Glo), K422; type: cell-based; conditions: Homo sapiens, 168 h; K422, 7 days; read-out: IC50 of antiproliferation
Method: Fifteen thousand cells were seeded in 100 μl of media per well of a U-bottom 96-well plate and treated with digitally dispensed drugs (Tecan D300e) for the indicated times and doses. After 96 hours, plates were centrifuged for 750 rpm for 3 minutes, and old media was exchanged for 100 μl of fresh media. Drug treatment was then repeated at the indicated doses. 72 hours following media change, cells were transferred to 96 well flat-bottom opaque plates. Viability was measured by adding 25 μL Cell Titer-Glo reagent (Promega G7570) to each well and luminescence was measured (BMG Labtech Pherastar FS). The background luminescence was subtracted, and the signal was normalized to DMSO-treated cells. IC50 measurements on cell lines were calculated using at least three biological replicates by separate cell passages. Fit of dose–response curves to data and statistical analysis was performed using GraphPad PRISM using the four-parameter log(inhibitor) vs response function.

[2] = molecular target: p300^WT (Homo sapiens, UniProt Q09472); test: TR-FRET binary displacement assay, p300 WT bromodomain; type: binding; conditions: α = Kd binary/Kd ternary
Method: Drugs were digitally dispensed (Tecan D300e) into protein-containing wells, and the plate was allowed to incubate in the dark for 1 hour at room temperature. Emission at 490 nm (terbium) and 520 nm (FITC) was measured on a PHERAstar FS plate reader (BMG Labtech) upon excitation with 337 nm. The ratio of signal at 520 nm to 490 nm was calculated and normalized to DMSO-treated protein.

[3] = tested on: SUDHL5^TRE−3xFLAG-MYC cells; test: Viability of SUDHL5 TRE-3xFLAG-MYC cells, 72 h; type: cell-based; conditions: Homo sapiens
Method: (§1) Thirty thousand cells were seeded in 100 μl of media per well of a 96-well plate and treated with drug for the indicated times and doses. A resazurin-based indicator of cell health (PrestoBlue; P50200, Thermo Fisher) was added for 1.5 h at 37°C, at which point the fluorescence ratio at 560/590 nm was recorded (Tecan Spark). The background fluorescence was subtracted, and the signal was normalized to DMSO-treated cells. IC50 measurements on cell lines were calculated using at least three biological replicates (separate cell passages). Fit of dose–response curves to data and statistical analysis was performed using GraphPad PRISM using the four-parameter log(inhibitor) vs response function.
An N-terminal fusion of 3xFLAG followed by a GGSGS linker fused to the coding sequence of human c-MYC (NM_002467.6)) was subcloned into pCW57-MCS1–2A-MCS2 (a gift from Adam Karpf (Addgene plasmid 71782; http://n2t.net/addgene:71782; RRID:Addgene_71782)).
This construct is the same used for BCL6 nanoBRET studies above. Lentivirus was produced from HEK293T cells via polyethylenimine transfection. Briefly, cells were transfected using 2nd-generation packaging plasmids and media replaced after 24 hours. […]

[4] = tested on: SUDHL5 cells; test: Cell viability, 72 h compound treatment (PrestoBlue), SUDHL5; type: cell-based, human; conditions: SUDHL5, 72 h
Method: as §1

[5] = tested on: SUDHL5 cells; test: Annexin V staining of SUDHL5; type: cell-based, human
Method: 25,000 cells were plated in 200 μL of media in 96 well U-bottom plates and treated with compound. […] Centrifugation and washing was repeated once more. Cells were then resuspended in 50 μL cold binding buffer (10 mM HEPES pH 7.4, 140 mM NaCl, 2.5 mM CaCl2) and 2.5 μL FITC-Annexin-V (Biolegend 640922). A no-stain control was also included to draw gates. The plate was allowed to incubate for 15 minutes at room temperature, at which point 100 μL of 2.5% FBS in PBS was added to each well. The plate was gently agitated through shaking, and samples were analyzed by flow cytometry on a BD Accuri. At least 50k events were collected per sample.

[6] = tested on: SUDHL5 cells; test: TUNEL and total DNA content co-staining of SUDHL5; type: cell-based, human; conditions: SUDHL5, 10 nM
Method: 1 million SUDHL5 cells were plated in 6 mL of media in 6-well plates and treated with compound for indicated timepoints and doses. 1.2 million total cells were counted, washed in PBS, fixed in 4% paraformaldehyde/PBS at a concentration of 10M/mL for 15 minutes at room temperature in the dark, washed in PBS, and stored in 70% ethanol at −20°C until ready for processing (at least 24 hours). DNA breaks in fixed cells were labeled with bromolated deoxyuridine (Br-dUTP or BrdU) by incubation with deoxynucleotidyl transferase (TdT) for 60 min at 37°C, washed, and stained with FITC-labeled anti-BrdU antibodies for 30 min at room temperature in the dark (BD 556405). Cells were resuspended in 1% BSA/PBS with 1:100 RNaseA (Invitrogen 12091021) and co-stained with 7-AAD for 30 min at room temperature in the dark (BD 559925). The suspension was gently agitated by shaking and analyzed by flow cytometry within 1 hour (BD Accuri).

[7] = tested on: BCL6-repressed GFP reporter; test: BCL6 reporter assay (BCL6-repressed GFP) in K422 cells; type: cell-based, human; conditions: 24 h, highest GFP signal
Method: KARPAS422 cells were lentivirally transduced with a construct containing the reporter. Description of the reporter construct has been published previously. After selection, cells were plated and treated with indicated amount of compound for 24 hours. Cells were washed in 2.5% FBS/PBS, stained with 1:250 v/v of 7-AAD (BD 559925) to distinguish live from dead cells, and harvested for flow cytometry on a BD Accuri. Given the polyclonal population after transduction, the area under the curve of the histogram representing FITC signal across all live cells was calculated as an integrative measure of total GFP signal. A GFP-positive gate two standard deviations from the mean was drawn from non-transduced cells and the area past a constant threshold was calculated and normalized to the signal from cells treated with DMSO.

Chain of p300^WT (Q09472 1049-1156 limits assumed): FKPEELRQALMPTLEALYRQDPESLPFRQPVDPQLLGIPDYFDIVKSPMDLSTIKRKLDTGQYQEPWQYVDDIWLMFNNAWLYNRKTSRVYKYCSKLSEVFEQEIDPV

Compound: CNC(=O)COc1cc2cc(Nc3nc(N4CCC(C(=O)N5CCN(CCC(=O)N6CCC(n7nc(N8CCCc9cc(-c%10cnn(C)c%10)c(C(F)F)cc98)c8c7CCN(C(=O)NC)C8)CC6)CC5)CC4)ncc3Cl)cc(OC)c2n(C)c1=O [TCIP3]
- IC50 [1]: 4 nM
- cooperativity α [2]: 4.2
- IC50 ([3]; SU-DHL-5, + dox (1 μg/mL doxycycline 24 h prior)): ~7.5 nM
- IC50 ([3]; SU-DHL-5, − dox): ~2 nM
- IC50 ([4]; Homo sapiens, SU-DHL-5, read-out: IC50 cell viability / antiproliferation): 0.8 nM
- IC50 cell viability / antiproliferation [4]: sub-nanomolar
- times more cytotoxic than either NEG1 or NEG2 [4]: over 1,000 times
- times more potent than A-485 [4]: 238 times
- times more potent than dCBP-1 [4]: 12 times
- Annexin V-positive cells, times higher than DMSO ([5]; SUDHL5, 10 nM, 72 hours): 2.9 times
- Annexin V-positive cells, times higher than NEG1 ([5]; SUDHL5, 10 nM, 72 hours): 2.3 times
- Annexin V-positive cells, times higher than NEG2 ([5]; SUDHL5, 10 nM, 72 hours): 2.5 times
- cells stained positive for Annexin V ([5]; SUDHL5, 10 nM, 72 hours): 82%
- induction of apoptosis ([5]; SUDHL5, 24, 48, 72 hours): significant increases in Annexin V-positive cells began after 48 hours
- predominant cellular effect after 24 hours [6]: arrest cells in G1
- GFP signal relative to DMSO treatment [7]: 10 times
